Laboratory results reported in ChEMBL document CHEMBL3751811, “The discovery of a novel antibiotic for the treatment of Clostridium difficile infections: a story of an effective academic-industrial partnership” (Medchemcomm, 2015).
In brackets after ≈: the same amount, converted by molar mass.

Assays:
Clostridioides difficile [1] = experiment: Antibacterial activity against Clostridium difficile R20291 assessed as growth inhibition; assay type: functional
Staphylococcus aureus [2] = experiment: Antibacterial activity against clinical isolates of Staphylococcus aureus EMRSA-16 assessed as growth inhibition after 20 hrs by broth dilution method; assay type: functional; settings: EMRSA-16, 20 h
[3] = Inhibition of Staphylococcus aureus topoisomerase 4 assessed as inhibition of decatenation of catenated kinetoplast DNA after 30 mins by agarose gel electrophoresis
[4] = Inhibition of Escherichia coli topoisomerase 4-mediated DNA decatenation activity
DNA gyrase = DNA gyrase (Staphylococcus aureus, UniProt P0A0K8+P20831); experiment: Inhibition of Staphylococcus aureus DNA gyrase assessed as reduction in enzyme-catalyzed supercoiling of relaxed circular pBR322 DNA incubated for 30 mins by agarose gel electrophoresis; assay type: protein-complex assay
Chain of DNA gyrase (P0A0K8 whole entry): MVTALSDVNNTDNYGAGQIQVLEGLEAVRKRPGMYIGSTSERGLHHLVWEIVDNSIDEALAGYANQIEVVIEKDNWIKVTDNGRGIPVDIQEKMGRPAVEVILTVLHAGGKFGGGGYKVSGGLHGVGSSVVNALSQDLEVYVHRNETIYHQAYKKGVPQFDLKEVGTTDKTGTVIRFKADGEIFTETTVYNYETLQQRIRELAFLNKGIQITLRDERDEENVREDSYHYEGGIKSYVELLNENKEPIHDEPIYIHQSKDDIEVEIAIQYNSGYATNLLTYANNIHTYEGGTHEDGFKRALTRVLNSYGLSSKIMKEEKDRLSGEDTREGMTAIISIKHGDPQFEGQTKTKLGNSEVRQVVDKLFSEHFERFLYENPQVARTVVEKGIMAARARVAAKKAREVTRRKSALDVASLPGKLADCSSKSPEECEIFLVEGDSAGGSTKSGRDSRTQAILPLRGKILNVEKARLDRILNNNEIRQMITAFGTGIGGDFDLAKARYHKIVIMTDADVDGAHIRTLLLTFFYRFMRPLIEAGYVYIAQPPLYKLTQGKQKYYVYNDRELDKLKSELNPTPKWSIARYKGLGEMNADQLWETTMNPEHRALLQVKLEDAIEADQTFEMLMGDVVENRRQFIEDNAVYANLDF
Chain of DNA gyrase (P20831 whole entry): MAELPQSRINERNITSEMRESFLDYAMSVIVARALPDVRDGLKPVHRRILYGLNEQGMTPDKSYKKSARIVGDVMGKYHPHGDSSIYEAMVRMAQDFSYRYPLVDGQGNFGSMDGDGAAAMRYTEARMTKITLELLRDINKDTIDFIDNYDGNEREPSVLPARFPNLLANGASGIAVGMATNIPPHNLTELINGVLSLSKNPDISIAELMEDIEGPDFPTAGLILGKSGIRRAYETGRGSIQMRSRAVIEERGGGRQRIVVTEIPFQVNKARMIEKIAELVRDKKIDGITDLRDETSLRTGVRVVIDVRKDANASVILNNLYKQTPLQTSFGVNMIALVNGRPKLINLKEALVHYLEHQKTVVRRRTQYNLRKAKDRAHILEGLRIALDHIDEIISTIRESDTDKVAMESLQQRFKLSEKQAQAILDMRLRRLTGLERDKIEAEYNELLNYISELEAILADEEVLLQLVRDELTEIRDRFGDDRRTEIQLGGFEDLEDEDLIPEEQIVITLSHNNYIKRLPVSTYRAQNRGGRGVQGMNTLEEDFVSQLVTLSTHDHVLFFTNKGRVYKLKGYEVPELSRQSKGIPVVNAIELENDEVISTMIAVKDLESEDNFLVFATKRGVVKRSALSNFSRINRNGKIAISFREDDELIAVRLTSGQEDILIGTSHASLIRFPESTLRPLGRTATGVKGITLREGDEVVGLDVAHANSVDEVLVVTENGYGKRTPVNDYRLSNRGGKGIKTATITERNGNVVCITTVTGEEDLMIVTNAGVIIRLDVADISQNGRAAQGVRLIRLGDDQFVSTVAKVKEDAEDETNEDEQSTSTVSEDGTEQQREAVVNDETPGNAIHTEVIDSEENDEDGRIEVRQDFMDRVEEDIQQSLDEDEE

Clostridioides difficile [5] = experiment: Antibacterial activity against Clostridium difficile CD 630 assessed as growth inhibition; assay type: functional
[6] = Inhibition of Clostridium difficile DNA gyrase supercoiling activity; set-up: species or system Clostridioides difficile
[7] = Inhibition of Escherichia coli DNA gyrase supercoiling activity
Escherichia coli [8] = experiment: Antibacterial activity against Escherichia coli NCTC 10418 assessed as growth inhibition; assay type: functional
Staphylococcus aureus [9] = experiment: Antibacterial activity against Staphylococcus aureus ATCC 29213 assessed as growth inhibition after 20 hrs by broth dilution method; assay type: functional; settings: ATCC 29213, 20 h
[10] = target: DNA gyrase subunit A/DNA gyrase subunit B (Mycobacterium tuberculosis (strain ATCC 25618 / H37Rv), UniProt P9WG45+P9WG47); experiment: Inhibition of Mycobacterium tuberculosis H37Rv DNA gyrase supercoiling activity
Chain of DNA gyrase subunit A/DNA gyrase subunit B (P9WG45 whole entry): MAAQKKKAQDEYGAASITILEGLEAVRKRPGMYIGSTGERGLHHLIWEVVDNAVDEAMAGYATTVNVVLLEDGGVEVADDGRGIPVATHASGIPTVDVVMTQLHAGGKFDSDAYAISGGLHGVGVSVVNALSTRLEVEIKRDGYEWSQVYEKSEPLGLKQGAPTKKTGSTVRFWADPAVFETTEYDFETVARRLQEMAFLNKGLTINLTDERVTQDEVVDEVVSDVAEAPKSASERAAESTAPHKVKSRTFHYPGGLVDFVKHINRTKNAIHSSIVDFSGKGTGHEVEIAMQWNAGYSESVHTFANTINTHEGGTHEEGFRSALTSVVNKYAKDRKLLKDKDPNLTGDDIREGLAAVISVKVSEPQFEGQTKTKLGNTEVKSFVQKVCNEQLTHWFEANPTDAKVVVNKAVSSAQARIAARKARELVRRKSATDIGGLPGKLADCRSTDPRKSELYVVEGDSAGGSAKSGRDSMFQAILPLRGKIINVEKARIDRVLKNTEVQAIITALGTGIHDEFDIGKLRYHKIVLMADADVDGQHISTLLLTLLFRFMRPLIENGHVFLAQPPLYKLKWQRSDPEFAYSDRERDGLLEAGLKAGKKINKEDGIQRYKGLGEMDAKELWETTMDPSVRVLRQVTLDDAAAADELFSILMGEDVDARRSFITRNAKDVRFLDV
Chain of DNA gyrase subunit A/DNA gyrase subunit B (P9WG47 whole entry): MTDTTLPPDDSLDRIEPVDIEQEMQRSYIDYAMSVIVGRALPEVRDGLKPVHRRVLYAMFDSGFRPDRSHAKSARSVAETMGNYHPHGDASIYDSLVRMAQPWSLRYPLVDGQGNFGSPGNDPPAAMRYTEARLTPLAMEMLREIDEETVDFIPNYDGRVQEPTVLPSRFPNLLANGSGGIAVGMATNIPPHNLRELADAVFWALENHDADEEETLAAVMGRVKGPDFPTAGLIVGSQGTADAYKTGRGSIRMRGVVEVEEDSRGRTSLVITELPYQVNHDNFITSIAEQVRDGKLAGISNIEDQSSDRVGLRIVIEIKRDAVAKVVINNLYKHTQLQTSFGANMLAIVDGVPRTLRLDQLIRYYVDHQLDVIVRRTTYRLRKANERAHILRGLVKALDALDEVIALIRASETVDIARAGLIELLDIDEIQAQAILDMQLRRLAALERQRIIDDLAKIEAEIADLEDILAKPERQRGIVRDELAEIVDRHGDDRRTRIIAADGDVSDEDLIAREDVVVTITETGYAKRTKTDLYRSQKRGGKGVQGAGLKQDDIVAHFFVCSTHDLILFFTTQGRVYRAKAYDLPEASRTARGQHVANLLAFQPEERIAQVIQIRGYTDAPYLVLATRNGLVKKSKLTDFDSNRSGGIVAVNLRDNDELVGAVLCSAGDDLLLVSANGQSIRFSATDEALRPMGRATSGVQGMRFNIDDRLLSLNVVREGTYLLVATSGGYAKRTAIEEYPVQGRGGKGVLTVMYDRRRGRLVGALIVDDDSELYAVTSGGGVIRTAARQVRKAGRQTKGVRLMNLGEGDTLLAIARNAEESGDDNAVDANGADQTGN

[11] = tested on: Mycobacterium tuberculosis; experiment: Antibacterial activity against Mycobacterium tuberculosis H37Rv logarithmic phase forms by spot culture growth inhibition assay; assay type: functional
Escherichia coli [12] = experiment: Antibacterial activity against Escherichia coli MC 1061 assessed as growth inhibition; assay type: functional
[13] = Inhibition of Escherichia coli topoisomerase 4-mediated DNA relaxation activity
[14] = tested on: Mycobacterium tuberculosis; experiment: Antibacterial activity against Mycobacterium tuberculosis H37Rv hypoxia-induced latency form by spot culture growth inhibition assay; assay type: functional

Compound	MIC90 (Clostridioides difficile [1]) [µg/mL]	MIC90 (Staphylococcus aureus [2]) [µg/mL]	IC50 [3] [µM]	IC50 [4] [µM]	IC50 (DNA gyrase) [µM]	MIC90 (Clostridioides difficile [5]) [µg/mL]	IC50 [6] [µM]	IC50 [7] [µM]	MIC90 (Escherichia coli [8]) [µg/mL]	MIC90 (Staphylococcus aureus [9]) [µg/mL]	IC50 [10] [µM]	MIC90 [11] [µg/mL]	MIC90 (Escherichia coli [12]) [µg/mL]	IC50 [13] [µM]	MIC90 [14] [µg/mL]
c1cc(-c2nc3cc(-c4ccc5[nH]c(-c6ccncc6)nc5c4)ccc3[nH]2)ccn1 [RIDINILAZOLE]	0.125 (≈ 0.322 µM)	> 128	> 50	> 50	> 50	0.06 (≈ 0.154 µM)	> 50	> 50	> 16	> 128					
Cc1ccc(-c2nc3ccc(-c4ccc5nc(-c6ccc(C)cc6)[nH]c5c4)cc3[nH]2)cc1	0.06 (≈ 0.145 µM)	0.06 (≈ 0.145 µM)	50.9	> 50	5.6	0.06 (≈ 0.145 µM)		> 50	> 64	0.03 (≈ 0.0724 µM)	2	1 (≈ 2.41 µM)	0.06 (≈ 0.145 µM)	> 50	2 (≈ 4.82 µM)
COc1cccc(-c2nc3ccc(-c4ccc5nc(-c6cccc(OC)c6)[nH]c5c4)cc3[nH]2)c1	> 32	> 128	70.3	> 50	8.8	> 32		> 50	> 64	> 128	29	> 16	> 64	> 50	
Nc1ccc(-c2nc3cc(-c4ccc5[nH]c(-c6ccc(N)cc6)nc5c4)ccc3[nH]2)cc1	0.125 (≈ 0.3 µM)	0.5 (≈ 1.2 µM)	15.5	8	0.3	0.03 (≈ 0.072 µM)	8.4	> 50	> 64	0.125 (≈ 0.3 µM)	11.3	16 (≈ 38.4 µM)	0.06 (≈ 0.144 µM)	6.5	8 (≈ 19.2 µM)
